Test results published in US11866430B2, “Naphthyridinone compounds useful as T cell activators” (priority 2018, dated 2024).

Columns and labels:
[1] = target: human DGKα (Homo sapiens (Human), UniProt P23743); assay: biochemical; settings: detergent/lipid micelle substrate; read-out: DGKα IC50
How it was run: (§1)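 Full-length human DGKα or DGKζ (C-terminal His tag, Sf9-expressed; 20 nM 4× stock) was preincubated 10 min at room temperature with PS/DAG octyl glucoside micelles in MOPS pH 7.5 buffer with MgCl2, CaCl2 and DTT. It was then started with ATP (300 uM addition) and run for 1 hr, with ADP-Glo luminescence read-out.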

[2] = target: human DGKζ (Homo sapiens (Human), UniProt Q13574); assay: DGKζ assay (detergent/lipid micelle substrate); format: biochemical; settings: detergent/lipid micelle substrate; read-out: DGKζ IC50
Sequence of human DGKζ (Q13574 other isoform, or with tags, fused parts or gaps): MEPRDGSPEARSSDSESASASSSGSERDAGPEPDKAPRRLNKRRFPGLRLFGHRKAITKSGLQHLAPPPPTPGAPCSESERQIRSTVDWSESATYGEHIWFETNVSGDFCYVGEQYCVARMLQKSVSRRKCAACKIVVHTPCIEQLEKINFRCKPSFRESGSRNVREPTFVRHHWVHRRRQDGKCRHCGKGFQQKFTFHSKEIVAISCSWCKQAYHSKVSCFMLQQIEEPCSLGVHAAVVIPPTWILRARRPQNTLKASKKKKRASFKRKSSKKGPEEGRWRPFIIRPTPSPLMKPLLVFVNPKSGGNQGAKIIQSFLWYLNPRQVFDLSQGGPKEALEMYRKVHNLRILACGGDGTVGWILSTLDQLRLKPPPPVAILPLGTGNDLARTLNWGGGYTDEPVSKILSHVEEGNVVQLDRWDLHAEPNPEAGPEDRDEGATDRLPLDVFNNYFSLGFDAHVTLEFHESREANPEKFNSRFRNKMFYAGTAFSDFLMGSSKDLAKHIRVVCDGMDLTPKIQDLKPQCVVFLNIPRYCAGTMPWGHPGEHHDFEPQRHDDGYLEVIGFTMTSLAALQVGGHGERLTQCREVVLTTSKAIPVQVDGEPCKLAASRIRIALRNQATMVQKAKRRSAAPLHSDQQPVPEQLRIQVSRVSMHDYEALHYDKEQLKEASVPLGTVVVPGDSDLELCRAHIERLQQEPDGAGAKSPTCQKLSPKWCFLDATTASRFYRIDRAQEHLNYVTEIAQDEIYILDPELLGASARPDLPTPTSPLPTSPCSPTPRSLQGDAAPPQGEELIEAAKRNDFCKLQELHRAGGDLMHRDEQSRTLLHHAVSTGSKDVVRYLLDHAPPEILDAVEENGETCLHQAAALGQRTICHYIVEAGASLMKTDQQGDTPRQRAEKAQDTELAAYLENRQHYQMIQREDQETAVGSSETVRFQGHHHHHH
How it was run: as §1

[3] = test system: pre-activated CD4 T cells and Raji cells; assay: Raji CD4 T Cell IL2 Assay; format: cell-based; settings: Homo sapiens, Raji

Sequence of human DGKα (P23743 other isoform, or with tags, fused parts or gaps): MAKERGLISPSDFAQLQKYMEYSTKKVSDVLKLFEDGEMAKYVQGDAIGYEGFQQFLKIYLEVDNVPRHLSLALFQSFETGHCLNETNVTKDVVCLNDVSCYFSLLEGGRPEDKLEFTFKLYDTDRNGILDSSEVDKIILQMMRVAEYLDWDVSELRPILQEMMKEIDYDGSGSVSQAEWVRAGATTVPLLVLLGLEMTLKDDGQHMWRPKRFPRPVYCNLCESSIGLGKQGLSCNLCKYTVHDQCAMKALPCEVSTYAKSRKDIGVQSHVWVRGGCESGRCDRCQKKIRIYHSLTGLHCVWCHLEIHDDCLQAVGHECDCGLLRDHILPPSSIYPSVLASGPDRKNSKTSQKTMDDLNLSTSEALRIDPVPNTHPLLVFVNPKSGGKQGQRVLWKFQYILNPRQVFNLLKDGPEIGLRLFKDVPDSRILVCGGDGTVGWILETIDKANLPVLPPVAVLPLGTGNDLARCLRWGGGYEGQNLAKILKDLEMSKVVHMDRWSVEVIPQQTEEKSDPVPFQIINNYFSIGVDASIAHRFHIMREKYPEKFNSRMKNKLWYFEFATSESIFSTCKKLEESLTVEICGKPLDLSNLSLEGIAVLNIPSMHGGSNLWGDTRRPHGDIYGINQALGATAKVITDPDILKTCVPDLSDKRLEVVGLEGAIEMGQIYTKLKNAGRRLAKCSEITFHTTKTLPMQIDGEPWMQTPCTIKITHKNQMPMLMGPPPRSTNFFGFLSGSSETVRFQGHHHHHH

Compound | IC50 [1] [nM] | IC50 [2] [µM] | IC50 [3] [nM]
Cn1c(=O)c(C#N)c(N2CCN(Cc3c(O)cccc3Br)CC2)c2nc(Br)ccc21 [Example 271, 6-bromo-4-{4-[(2-bromo-6-hydroxyphenyl)methyl]piperazin-1-yl}-1-methyl-2-oxo-1,2-dihydro-1,5-naphthyridine-3-carbonitrile] | 1100 | 110 | 61
Cn1c(=O)c(C#N)c(N2CCN(Cc3ccc(Br)cc3O)CC2)c2nc(Cl)ccc21 [Example 276, 4-{4-[(4-bromo-2-hydroxyphenyl)methyl]piperazin-1-yl}-6-chloro-1-methyl-2-oxo-1,2-dihydro-1,5-naphthyridine-3-carbonitrile] | 12 | > 240 | 79
Cn1c(=O)c(C#N)c(N2CCN(Cc3cccc(Cl)c3O)CC2)c2nc(Br)ccc21 [Example 278, 6-bromo-4-{4-[(3-chloro-2-hydroxyphenyl)methyl]piperazin-1-yl}-1-methyl-2-oxo-1,2-dihydro-1,5-naphthyridine-3-carbonitrile] | 350 | > 81 | 87
Cn1c(=O)c(C#N)c(N2CCN(Cc3c(O)cccc3F)CC2)c2nc(Cl)ccc21 [Example 280, 6-chloro-4-{4-[(2-fluoro-6-hydroxyphenyl)methyl]piperazin-1-yl}-1-methyl-2-oxo-1,2-dihydro-1,5-naphthyridine-3-carbonitrile] | 76 | > 240 | 92
Cn1c(=O)c(C#N)c(N2CCN(Cc3cc(Br)ccc3O)CC2)c2nc(Br)ccc21 [Example 282, 6-bromo-4-{4-[(5-bromo-2-hydroxyphenyl)methyl]piperazin-1-yl}-1-methyl-2-oxo-1,2-dihydro-1,5-naphthyridine-3-carbonitrile] | 220 | > 240 | 94
Cn1c(=O)c(C#N)c(N2CCN(Cc3ccccc3NC(=O)OC(C)(C)C)CC2)c2nc(Br)ccc21 [Example 284, tert-butyl N-(2-{[4-(6-bromo-3-cyano-1-methyl-2-oxo-1,2-dihydro-1,5-naphthyridin-4-yl)piperazin-1-yl]methyl}phenyl)carbamate] | 1000 | > 240 | 98
Cn1c(=O)c(C#N)c(N2CCN(Cc3ccccc3OC(F)(F)F)CC2)c2nc(Cl)ccc21 [Example 285, 6-chloro-1-methyl-2-oxo-4-(4-{[2-(trifluoromethoxy)phenyl]methyl}piperazin-1-yl)-1,2-dihydro-1,5-naphthyridine-3-carbonitrile] | 910 | > 240 | 100
Cc1ccc2c(n1)c(N1CCN(Cc3cccc(Br)c3O)CC1)c(C#N)c(=O)n2C [Example 286, 4-{4-[(3-bromo-2-hydroxyphenyl)methyl]piperazin-1-yl}-1,6-dimethyl-2-oxo-1,2-dihydro-1,5-naphthyridine-3-carbonitrile] | 1200 | 140 | 100
Cc1ccc(CN2CCN(c3c(C#N)c(=O)n(C)c4ccc(Cl)nc34)CC2)cc1F [Example 289, 6-chloro-4-{4-[(3-fluoro-4-methylphenyl)methyl]piperazin-1-yl}-1-methyl-2-oxo-1,2-dihydro-1,5-naphthyridine-3-carbonitrile] | 250 | > 81 | 110
Cc1cc(F)cc(CN2CCN(c3c(C#N)c(=O)n(C)c4ccc(Cl)nc34)CC2)c1 [Example 290, 6-chloro-4-{4-[(3-fluoro-5-methylphenyl)methyl]piperazin-1-yl}-1-methyl-2-oxo-1,2-dihydro-1,5-naphthyridine-3-carbonitrile] | 2200 | > 240 | 110
Cn1c(=O)c(C#N)c(N2CCN(Cc3cc(F)cc(F)c3)CC2)c2nc(Cl)ccc21 [Example 291, 6-chloro-4-{4-[(3,5-difluorophenyl)methyl]piperazin-1-yl}-1-methyl-2-oxo-1,2-dihydro-1,5-naphthyridine-3-carbonitrile] | 330 | > 81 | 110
Cn1c(=O)c(C#N)c(N2CCN(Cc3c(O)cccc3F)CC2)c2nc(Br)ccc21 [Example 294, 6-bromo-4-{4-[(2-fluoro-6-hydroxyphenyl)methyl]piperazin-1-yl}-1-methyl-2-oxo-1,2-dihydro-1,5-naphthyridine-3-carbonitrile] | 110 | > 240 | 140
Cc1ccc2c(n1)c(N1CCN(Cc3cc(Cl)ccc3O)CC1)c(C#N)c(=O)n2C [Example 296, 4-{4-[(5-chloro-2-hydroxyphenyl)methyl]piperazin-1-yl}-1,6-dimethyl-2-oxo-1,2-dihydro-1,5-naphthyridine-3-carbonitrile] | 980 | 150 | 150
COc1ccccc1CN1CCN(c2c(C#N)c(=O)n(C)c3ccc(Br)nc23)CC1 [Example 297, 6-bromo-4-{4-[4(2-methoxyphenyl)methyl]piperazin-1-yl}-1-methyl-2-oxo-1,2-dihydro-1,5-naphthyridine-3-carbonitrile] | 890 | > 240 | 160
Cn1c(=O)c(C#N)c(N2CCN(Cc3cc(F)cc(F)c3O)CC2)c2nc(Cl)ccc21 [Example 298, 6-chloro-4-{4-[(3,5-difluoro-2-hydroxyphenyl)methyl]piperazin-1-yl}-1-methyl-2-oxo-1,2-dihydro-1,5-naphthyridine-3-carbonitrile] | 830 | 27 | 160
Cn1c(=O)c(C#N)c(N2CCN(Cc3cccc4c3NCC4)CC2)c2nc(Br)ccc21 [Example 299, 6-bromo-4-{4-[(2,3-dihydro-1H-indol-7-yl)methyl]piperazin-1-yl}-1-methyl-2-oxo-1,2-dihydro-1,5-naphthyridine-3-carbonitrile] | 570 | > 240 | 160
Cn1c(=O)c(C#N)c(N2CCN(Cc3cccc(Cl)c3)CC2)c2nc(Cl)ccc21 [Example 302, 6-chloro-4-{4-[(3-chlorophenyl)methyl]piperazin-1-yl}-1-methyl-2-oxo-1,2-dihydro-1,5-naphthyridine-3-carbonitrile] | 610 | > 81 | 180
Cn1c(=O)c(C#N)c(N2CCN(Cc3cccc4cc[nH]c34)CC2)c2nc(Cl)ccc21 [Example 303, 6-chloro-4-{4-[_(1H-indol-7-yl)methyl]piperazin-1-yl}-1-methyl-2-oxo-1,2-dihydro-1,5-naphthyridine-3-carbonitrile] | 900 | > 240 | 180
Cn1c(=O)c(C#N)c(N2CCN(Cc3cccc(F)c3O)CC2)c2nc(Cl)ccc21 [Example 306, 6-chloro-4-{4-[(3-fluoro-2-hydroxyphenyl)methyl]piperazin-1-yl}-1-methyl-2-oxo-1,2-dihydro-1,5-naphthyridine-3-carbonitrile] | 200 | > 240 | 210
Cn1c(=O)c(C#N)c(N2CCN(Cc3cc(Cl)cc(Cl)c3O)CC2)c2nc(Cl)ccc21 [Example 307, 6-chloro-4-{4-[(3,5-dichloro-2-hydroxyphenyl)methyl]piperazin-1-yl}-1-methyl-2-oxo-1,2-dihydro-1,5-naphthyridine-3-carbonitrile] | 1800 | > 81 | 210
Cn1c(=O)c(C#N)c(N2CCN(Cc3ccc(Cl)cc3Cl)CC2)c2nc(Cl)ccc21 [Example 310, 6-chloro-4-{4-[(2,4-dichlorophenyl)methyl]piperazin-1-yl}-1-methyl-2-oxo-1,2-dihydro-1,5-naphthyridine-3-carbonitrile] | 970 | > 240 | 220
COc1cccc(O)c1CN1CCN(c2c(C#N)c(=O)n(C)c3ccc(Br)nc23)CC1 [Example 314, 6-bromo-4-{4-[(2-hydroxy-6-methoxyphenyl)methyl]piperazin-1-yl}-1-methyl-2-oxo-1,2-dihydro-1,5-naphthyridine-3-carbonitrile] | 170 | 82 | 250
Cn1c(=O)c(C#N)c(N2CCN(Cc3ccccc3O)CC2)c2nc(C#N)ccc21 [Example 317, 8-{4-[(2-hydroxyphenyl)methyl]piperazin-1-yl}-5-methyl-6-oxo-5,6-dihydro-1,5-naphthyridine-2,7-dicarbonitrile] | 160 | 34 | 290
Cn1c(=O)c(C#N)c(N2CCN(Cc3cc(F)ccc3F)CC2)c2nc(Cl)ccc21 [Example 318, 6-chloro-4-{4-[(2,5-difluorophenyl)methyl]piperazin-1-yl}-1-methyl-2-oxo-1,2-dihydro-1,5-naphthyridine-3-carbonitrile] | 850 | 140 | 290
Cn1c(=O)c(C#N)c(N2CCN(Cc3ccc(F)c(F)c3)CC2)c2nc(Cl)ccc21 [Example 319, 6-chloro-4-{4-[(3,4-difluorophenyl)methyl]piperazin-1-yl}-1-methyl-2-oxo-1,2-dihydro-1,5-naphthyridine-3-carbonitrile] | 550 | 220 | 300
Cn1c(=O)c(C#N)c(N2CCN(Cc3cc(F)cc(F)c3O)CC2)c2nc(Br)ccc21 [Example 320, 6-bromo-4-{4-[(3,5-difluoro-2-hydroxyphenyl)methyl]piperazin-1-yl}-1-methyl-2-oxo-1,2-dihydro-1,5-naphthyridine-3-carbonitrile] | 890 | > 240 | 300
Cn1c(=O)c(C#N)c(N2CCN(Cc3cccc4cn[nH]c34)CC2)c2nc(Cl)ccc21 [Example 322, 6-chloro-4-{4-[(1H-indazol-7-yl)methyl]piperazin-1-yl}-1-methyl-2-oxo-1,2-dihydro-1,5-naphthyridine-3-carbonitrile] | 2800 | > 240 | 320
